Source: paper PMC4281220, “Antibacterial Activity of Novel Cationic Peptides against Clinical Isolates of Multi-Drug Resistant Staphylococcus pseudintermedius from Infected Dogs” (PLoS ONE, 2014)
Values after ≈ are worked out from the molar mass of the structure shown. Where two headings read alike, the source gives them in different places. Residues, ends and D or L forms follow the SMILES beside them.

Legend:
[1] = tested on: macrophage-like cell line (J774A.1); test: Cytotoxicity, MTS assay, J774A.1; type: cell-based
[2] = tested on: S. pseudintermedius strains; type: cell-based, Staphylococcus pseudintermedius; details: for GM MIC S. pseudintermedius: 24 h
Description: The broth microdilution technique was used to determine the minimum inhibitory concentrations (MIC) of peptides and antibiotics in MHB in accordance with the Clinical and Laboratory Standards Institute (CLSI) guidelines. Peptides were dissolved in sterile distilled water containing 0.02% acetic acid. MIC assays were carried out with an initial bacterial inoculum of 5×10^5 colony forming unit (CFU/ml). Peptides and antibiotics were added to Polystyrene 96 well plates (CytoOne, CC7672-7596) at desired concentrations and plates were incubated for 24 hr at 37°C. MIC was defined as the lowest concentration of peptide which inhibited the visible growth of bacteria. MIC was done in triplicates and the highest value was reported.
(§1) Untreated cells were used as a negative control.

[3] = tested on: methicillin resistant Staphylococcus pseudintermedius (MRSP) strains
Description: (§2) Forty isolates of S. pseudintermedius (30 MSSP and 10 MRSP) identified at the Indiana Animal Disease Diagnostic laboratory from specimens collected from dogs admitted to the small animal teaching hospital at Purdue University were included in the study (Tables 2 and 3). […] Vitek identification of S. pseudintermedius was confirmed by a positive coagulase test. Antimicrobial susceptibility was determined by broth microdilution using the SensiTitre (Trek).
(§3) The broth microdilution technique was used to determine the minimum inhibitory concentrations (MIC) of peptides and antibiotics in MHB in accordance with the Clinical and Laboratory Standards Institute (CLSI) guidelines. Peptides were dissolved in sterile distilled water containing 0.02% acetic acid. […] MIC was defined as the lowest concentration of peptide which inhibited the visible growth of bacteria. MIC was done in triplicates and the highest value was reported.

[4] = tested on: methicillin sensitive Staphylococcus pseudintermedius (MSSP) strains
Description: as §2, §3

[5] = tested on: human keratinocyte (HaCat); test: Cytotoxicity, MTS assay, HaCat; type: cell-based; details: for IC50: 24 h
From the text: as §1

[6] = tested on: S. pseudintermedius (SP6); type: cell-based, Staphylococcus pseudintermedius; details: SP6, serial passages at 1/2 X MIC
From the text: Results were expressed as the ratio of MIC value after each passage compared to the initial MIC value.

MRSP (SP3) = test: Time kill assay; type: cell-based, Staphylococcus pseudintermedius; details: SP3, 5X MIC, MHB
Description: One strain of MRSP (SP3) was grown overnight in MHB, then diluted in fresh MHB and incubated for 2 hr until logarithmic growth phase was achieved. Then bacteria were centrifuged and washed twice with phosphate buffered saline (PBS) and adjusted to ∼5×10^5 CFU/ml in MHB. […] Aliquots at specified time points were taken, serially diluted in PBS and plated in triplicate on MHA. CFUs were counted after incubation of plates for 24 hr at 37°C.

[7] = tested on: Staphylococcus pseudintermedius (SP3); type: cell-based
Description: The synergistic effect between peptides and antimicrobial agents was determined by the combination assay as described previously. Peptide MICs against SP3 were determined in triplicate. […] Additive was defined as an FIC index of 1. Antagonism was defined as an FIC index of >4.

SP3 [8] = test: Growth kinetics (culture turbidity, OD600); type: cell-based, Staphylococcus pseudintermedius; details: SP3, 5 X MIC, MHB, OD600, within the same time frame (7 hours)
Description: The turbidity of bacterial culture after exposure to peptides was measured as described previously. Briefly, logarithmic growth of SP 3 was diluted in MHB to reach OD600≈0.25. One mL of diluted bacteria was added to a plastic cuvette (light path 1 cm). Peptides and antibiotics were added to cuvettes at a concentration equivalent to 5 X MIC as determined in antibacterial assays above. Cuvettes were incubated aerobically at 37°C. At specific time points, OD was measured at 600 nm wavelength by spectrophotometer. Cuvettes containing MHB without bacteria and with the same concentrations of peptide or antibiotic served as blanks. Nisin at 5 X MIC and untreated bacteria were used as positive and negative controls, respectively. The assay was repeated twice and the average was reported.

[9] = tested on: mammalian cells (J774A.1 and HaCat); test: Cytotoxicity, MTS assay, statement for both cell lines; details: 24 hours
Description: Peptides were assayed at different concentrations against macrophage-like cell line (J774A.1) and human keratinocyte (HaCat) to determine the potential toxic effect in vitro. […] Untreated cells were used as a negative control. […] After incubation, the cells were washed three times with PBS and the media in each well were replaced with 100 µL of DMEM media and 20 µL of assay reagent, MTS 3-(4,5-dimethylthiazol-2-yl)-5-(3-carboxymethoxyphenyl)-2-(4-sulfophenyl)-2H-tetrazolium) (Promega, Madison, WI, USA). The cells were incubated further for 4 h at 37°C. Corrected absorbance readings (actual absorbance readings for each treatment subtracted from background absorbance) were taken using a kinetic ELISA microplate reader (Molecular Devices, Sunnyvale, CA, USA). Cell viability was expressed as percentage of absorbance in comparison to negative control, untreated cells.
Cytotoxicity data were subjected to statistical analysis using GraphPad Prism 6.0 (GraphPad Software, La Jolla, CA). Cytotoxicity data were analyzed using one-way ANOVA, with post hoc Tukey's multiple comparisons test. P-values of <0.01 were considered significant.

SP3 [10] = test: Bacterial membrane permeability (propidium iodide fluorescence); type: cell-based, Staphylococcus pseudintermedius; details: SP3, 5X MIC, 10 µM propidium iodide, 30 minutes; in comparison to (KFF)3K, WR-12 and penetratin
Description: Bacterial membrane damage was assessed by fluorescence change of propidium iodide dye as described previously. Briefly, SP3 was grown in MHB to logarithmic phase of growth then diluted to OD600≈0.25. Propidium iodide was mixed with bacteria to a final concentration of 10 µM. […] The percentage of membrane permeabilization was calculated as the percent of fluorescent intensity of peptide-treated samples with respect to fluorescence intensity of propidium iodide-loaded, peptide untreated samples.

[11] = compound serially diluted in the presence of (KFF)3K fixed at one-quarter of its MIC
[12] = compound serially diluted in the presence of IK8 “D isoform” fixed at one-quarter of its MIC
[13] = compound serially diluted in the presence of Penetratin fixed at one-quarter of its MIC
[14] = compound serially diluted in the presence of RR fixed at one-quarter of its MIC
[15] = compound serially diluted in the presence of RRIKA fixed at one-quarter of its MIC
[16] = compound serially diluted in the presence of WR-12 fixed at one-quarter of its MIC

Compound: NCCCC[C@H](NC(=O)[C@H](Cc1ccccc1)NC(=O)[C@H](Cc1ccccc1)NC(=O)[C@H](CCCCN)NC(=O)[C@H](Cc1ccccc1)NC(=O)[C@H](Cc1ccccc1)NC(=O)[C@H](CCCCN)NC(=O)[C@H](Cc1ccccc1)NC(=O)[C@H](Cc1ccccc1)NC(=O)[C@@H](N)CCCCN)C(N)=O [(KFF)3K] (H-KFFKFFKFFK-NH2)
- IC50 ([1]; 24 h): 256 µM
- TI (Therapeutic index) J774A.1 ([1]; 24 h): 33/>33
- GM MIC S. pseudintermedius [2]: 7.75 µM
- MIC50 [3]: 4 µM (≈ 5.65 µg/mL)
- MIC90 [3]: 8 µM (≈ 11.3 µg/mL)
- MIC50 [4]: 8 µM (≈ 11.3 µg/mL)
- MIC90 [4]: 16 µM (≈ 22.6 µg/mL)
- IC50 [5]: > 256 µM

Compound: NCC[C@H](O)C(=O)N[C@@H]1C[C@H](N)[C@@H](O[C@H]2O[C@H](CN)[C@@H](O)[C@H](O)[C@H]2O)[C@H](O)[C@H]1O[C@H]1O[C@H](CO)[C@@H](O)[C@H](N)[C@H]1O [Amikacin, amikacin hydrate]
- passage at which shift (doubling) of the MIC began [6]: 4 passage
- fold increase in the MIC by passage 10 ([6]; ratio to the initial MIC): 32 fold
- log10 reduction after 12 hours incubation (MRSP (SP3)): 3 log10
- log10 reduction within 3 hours (MRSP (SP3); 37°C): less than one log10 reduction
- time after which bactericidal activity was demonstrated (MRSP (SP3); data not shown): 12 h
- FIC index [7, 11]: 0.37
- FIC index [7, 12]: 0.75
- FIC index [7, 13]: 0.75
- FIC index [7, 14]: 0.75
- FIC index [7, 15]: 1
- FIC index [7, 16]: 1
- effect on culture turbidity (SP3 [8]): did not reduce the culture turbidity

Compound: O=C(O)c1cn(C2CC2)c2cc(N3CCNCC3)c(F)cc2c1=O [Ciprofloxacin, ciprofloxacin]
- effect on culture turbidity (SP3 [8]): did not reduce the culture turbidity

Compound: CNC(C)C1CCC(N)C(OC2C(N)CC(N)C(OC3OCC(C)(O)C(NC)C3O)C2O)O1 (stereo not shown) [Gentamicin]
- FIC index [7, 11]: 0.26
- FIC index [7, 12]: 1
- FIC index [7, 13]: 1
- FIC index [7, 14]: 0.75
- FIC index [7, 15]: 1
- FIC index [7, 16]: 0.75

Compound: CC[C@H](C)[C@H](NC(=O)CN)C(=O)NCC(=O)N[C@@H](C)C(=O)N[C@H](C(=O)N[C@@H](CC(C)C)C(=O)N[C@@H](CCCCN)C(=O)N[C@H](C(=O)N[C@@H](CC(C)C)C(=O)N[C@H](C(=O)N[C@H](C(=O)NCC(=O)N[C@@H](CC(C)C)C(=O)N1CCC[C@H]1C(=O)N[C@@H](C)C(=O)N[C@@H](CC(C)C)C(=O)N[C@H](C(=O)N[C@@H](CO)C(=O)N[C@@H](Cc1c[nH]c2ccccc12)C(=O)N[C@H](C(=O)N[C@@H](CCCCN)C(=O)N[C@@H](CCCNC(=N)N)C(=O)N[C@@H](CCCCN)C(=O)N[C@@H](CCCNC(=N)N)C(=O)N[C@@H](CCC(N)=O)C(=O)N[C@@H](CCC(N)=O)C(N)=O)[C@@H](C)CC)[C@@H](C)CC)[C@@H](C)O)[C@@H](C)O)C(C)C)C(C)C [Melittin, melittin, reference compound]
- IC50 ([1]; MTS assay, 24 hours treatment, 8 to 256 µM, DMEM 10% FBS, concentration that inhibits 50% of cells, read-out: IC50 J774A.1): 2 µM
- concentration toxic to J774A.1 ([1]; MTS assay, positive control, 24 hours, P<0.01): 5 µM
- MIC ([2]; MIC of the melittin, strain not stated): 5 µM

Compound: CC[C@H](C)[C@H](NC(=O)[C@H](CCCNC(=N)N)NC(=O)[C@H](CCCNC(=N)N)NC(=O)[C@H](CC(C)C)NC(=O)[C@H](Cc1c[nH]c2ccccc12)NC(=O)[C@H](C)NC(=O)[C@H](CCCCN)NC(=O)[C@@H](NC(=O)[C@H](CCCNC(=N)N)NC(=O)[C@H](CCCNC(=N)N)NC(=O)[C@H](CC(C)C)NC(=O)[C@@H](N)Cc1c[nH]c2ccccc12)[C@@H](C)CC)C(=O)N[C@@H](CCCCN)C(=O)N[C@@H](C)C(=O)O [RRIKA]
- IC50 ([1]; 24 h): 64 µM
- TI (Therapeutic index) J774A.1 ([1]; 24 h): 55.6
- GM MIC S. pseudintermedius [2]: 1.15 µM
- MIC50 [3]: 1 µM (≈ 1.87 µg/mL)
- MIC90 [3]: 1 µM (≈ 1.87 µg/mL)
- MIC50 [4]: 1 µM (≈ 1.87 µg/mL)
- MIC90 [4]: 2 µM (≈ 3.73 µg/mL)
- IC50 [5]: 128 µM
- TI (Therapeutic index) HaCat ([5]; ratio of the IC50 over the geometric mean MIC value): 111.2

Compound: CC[C@H](C)[C@H](NC(=O)[C@H](CCCNC(=N)N)NC(=O)[C@H](CCCNC(=N)N)NC(=O)[C@H](CC(C)C)NC(=O)[C@@H](N)Cc1c[nH]c2ccccc12)C(=O)N[C@@H](CCCCN)C(=O)N[C@@H](C)C(=O)N[C@@H](Cc1c[nH]c2ccccc12)C(=O)N[C@@H](CC(C)C)C(=O)N[C@@H](CCCNC(=N)N)C(=O)N[C@@H](CCCNC(=N)N)C(=O)O [RR] (H-WLRRIKAWLRR-OH)
- concentration up to which not toxic to mammalian cells [9]: up to 64 µM

Compound: N=C(N)NCCC[C@H](NC(=O)[C@H](CCCNC(=N)N)NC(=O)[C@H](Cc1c[nH]c2ccccc12)NC(=O)[C@H](Cc1c[nH]c2ccccc12)NC(=O)[C@H](CCCNC(=N)N)NC(=O)[C@H](CCCNC(=N)N)NC(=O)[C@H](Cc1c[nH]c2ccccc12)NC(=O)[C@H](Cc1c[nH]c2ccccc12)NC(=O)[C@H](CCCNC(=N)N)NC(=O)[C@H](Cc1c[nH]c2ccccc12)NC(=O)[C@H](Cc1c[nH]c2ccccc12)NC(=O)[C@@H](N)CCCNC(=N)N)C(=O)O [WR-12] (H-RWWRWWRRWWRR-OH)
- IC50 ([1]; 24 h): 128 µM
- TI (Therapeutic index) J774A.1 ([1]; 24 h): 85.3/85.3
- GM MIC S. pseudintermedius [2]: 1.5 µM
- MIC50 [3]: 0.5 µM (≈ 1.04 µg/mL)
- MIC90 [3]: 2 µM (≈ 4.14 µg/mL)
- MIC50 [4]: 1 µM (≈ 2.07 µg/mL)
- MIC90 [4]: 2 µM (≈ 4.14 µg/mL)
- IC50 [5]: 128 µM

Compound: Nisin
- membrane perturbation, propidium iodide fluorescence (comparison in words) (SP3 [10]): faster and more potent at membrane perturbation
